# From patent US11484032B2, “Compositions for inhibition of insect sensing” (Vanderbilt University, priority 2011, dated 2022)
# Where two headings read alike, the source gives them in different places.
# How the values were obtained:
# AgOrco+AgOR65 = target: T1, AgOrco+AgOR65 (Anopheles gambiae, UniProt Q7QCC7); experiment: Ca2+ imaging, HEK cells expressing AgOrco+AgOR65; type: cell-based
# T1 construct: expressed in transfected cells
# T1 sequence (Q7QCC7 1-478): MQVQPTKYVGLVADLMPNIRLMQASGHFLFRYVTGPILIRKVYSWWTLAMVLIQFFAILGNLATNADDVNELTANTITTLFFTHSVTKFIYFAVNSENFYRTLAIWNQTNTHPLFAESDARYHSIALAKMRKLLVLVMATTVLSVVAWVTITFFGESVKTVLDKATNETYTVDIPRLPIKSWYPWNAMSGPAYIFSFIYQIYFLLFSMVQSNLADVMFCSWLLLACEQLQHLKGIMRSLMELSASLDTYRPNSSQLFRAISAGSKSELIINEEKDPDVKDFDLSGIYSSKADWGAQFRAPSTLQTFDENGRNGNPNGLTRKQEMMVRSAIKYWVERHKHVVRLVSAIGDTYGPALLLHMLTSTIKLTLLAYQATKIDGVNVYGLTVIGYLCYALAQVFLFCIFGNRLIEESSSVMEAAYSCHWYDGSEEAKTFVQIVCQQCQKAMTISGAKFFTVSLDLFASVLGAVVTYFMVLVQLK
# Description: (§1) For transient transfections, ORs were cloned into pCl (Promega) and transfected into Flp-In™ T-REx™293 cell lines (Invitrogen) with Fu GENE6 (Roche). For the creation of stable cell lines, a cell culture expression vector capable of expressing Orco in conjunction with a conventional OR, pcDNA5/FRT/TO (Invitrogen) was modified to create two individual expression cassettes each under the control of a separate CMV/Tet02 promoter and a BGH poly-adenylation signal. Cells (as above) were transfected with the modified pcDNA5 plasmid along with POG44 (a Flp recombinase expression plasmid) to facilitate site-specific recombination. Stable cell lines were selected using Hygromycin B (Invitrogen). Cells were maintained in DMEM (Invitrogen) supplemented with 10% Tetracycline-free FBS (HyClone) and 15 ng/ml Blasticidin. For fluorometric Ca2+ measurements, stable lines expressing ORs of interest were seeded at 20,000 cells/well in black wall, poly-lysine coated 384-well cell culture plates (Greiner) and treated with […] tetracycline (Sigma) overnight to induce OR expression. Cells were dye-loaded with 1.8 uM Fluo-4 AM (Molecular Probes), 2.5 mM Probenecid (Molecular Probes) in assay buffer (20 mM HEPES, IX HBSS) for 45 minutes at 37° C. in 5% CO2 prior to each assay. Ca^2+ mobilization was assayed in an FDSS6000 (Hamamatsu). Baseline readings were taken for 20 s before automated addition of compound previously diluted in DMSO and assay buffer. Ratios were described as Maximum/Minimum response and each response was normalized to the maximum responder.
# For VUAA0, a single methyl from the para position of the aniline ring (compound VUAA0, FIG. 44) in the VUAA1 structure was removed. […] In VUAA0.5, unsaturation was introduced at the para position of the aniline ring (VUAA0.5, FIG. 44). […] In VUAA2, the ethyl group of the aniline ring in VUAA1 was replaced with an isopropyl group (VUAA2, FIG. 44).
# [1] = system: An. gambiae early 4th instar larvae; experiment: Larval mosquito movement assay (Daniovision-Ethovision); type: in vivo, Anopheles gambiae
# Method: Next, the agonist activity of the VUAA compound class was tested to establish the involvement of AgORs in mediating larval ortho and klinokinesis in response to a series of semiochemicals using larval-stage An. gambiae mosquitoes. Mosquito larvae are aquatic, thus compounds can be delivered to individual early 4th instar larvae regardless of volatility. The assay currently utilizes 6-well plates and the Daniovision-Ethovision platform (Noldus Inc.) to simultaneously record and analyze 6 larvae, thereby providing modest rates of throughput and a high degree of reproducibility. In these assays, larval movements are automatically quantified over 5-minute period and control larvae consistently move the same number of times in the presence or absence of 0.1% DMSO (p=0.80, n=31) (FIGS. 42-43). Furthermore, the effects of the widely-used synthetic insect repellent N, N-diethyl-meta-toluamide (DEET) was tested and DEET was also observed to increase larval movements at and above a threshold concentration of 5×10^−4M (p=0.013, n=27) (FIGS. 42-43).
# Orco (AgORco) = target: T2, Orco (AgORco) (Anopheles gambiae, UniProt Q7QCC7); experiment: Fluo-4 Ca2+ imaging, HEK293 cells expressing Orco alone; type: cell-based; conditions: for Emax: HEK293, read-out: Orco Agonist % value Of VUAA1; for Orco Agonist EC50 (relative to VUAA1): stated in words relative to VUAA1
# T2 construct: expressed in transfected cells
# T2 sequence (Q7QCC7 1-478): T1 sequence (Q7QCC7 1-478)
# Description: as §1
# AgORco+AgOR10 = target: T3, AgORco+AgOR10 (Anopheles gambiae, UniProt Q7QCC7); experiment: Fluo-4 Ca2+ imaging, HEK293 cells expressing Orco+AgOR10; type: cell-based; design: Orco 10 + Orco Angatonist % Reduction / Orco 10 + Orco Agonist % of control: concentration or dose not given beside the values; conditions: 10 + Orco; for Orco 10 + Orco Agonist, compared with VUAA1: qualitative, relative to VUAA1
# T3 construct: expressed in transfected cells
# T3 sequence (Q7QCC7 1-478): T1 sequence (Q7QCC7 1-478)
# Description: as §1
# As part of an ongoing, cell based calcium imaging screen for novel small-molecule modulators of AgORs that might disrupt olfactory-driven mosquito behaviors (Rinker et al manuscript in preparation), the inventors identified a number of compounds that activated AgOR10+AgORco-expressing human embryonic kidney (HEK293) cells. One of these compounds, (FIG. 3 A) denoted here as VUAA1, elicited activity consistent with allosteric agonism and was pursued for its novel properties. The identity of VUAA1 was verified using high-resolution mass spectrometry (HRMS) as well as ^1H and ^13C NMR. […] As AgORco was the common element among these functional responses, the inventors postulated that VUAA1 was a potential AgORco agonist.
# AgORco+AgOR48 = target: T4, AgORco+AgOR48 (Anopheles gambiae, UniProt Q7QCC7); experiment: Ca2+ imaging, HEK cells expressing AgORco+AgOR48; type: cell-based; conditions: for EC50: read-out: Orco + 48 Agonist EC50; for Orco + 48 Agonist % value Of VUAA1: relative to VUAA1; for Orco + 48 Agonist EC50 (relative to VUAA1): stated in words relative to VUAA1
# T4 construct: expressed in transfected cells
# T4 sequence (Q7QCC7 1-478): T1 sequence (Q7QCC7 1-478)
# Description: as §1
# The ability of VUAA1 and its analogs to agonize representative ORco proteins from dipteran (Anopheles gambiae, AgORco), lepidopteran (Heliothis virescens, HvORco) and hymenopteran (Harpegnathos saltator, HsORco) orders was tested. […] Furthermore, the hierarchy of VUAA series potency was the same, irrespective of whether AgORco was co-expressed with AgOR65 or AgOR48 tuning ORs (FIG. 45). Without wishing to be bound by a particular theory, odorant ligands are thought to activate the complex via interaction with the tuning ORx and thereby affect ORco/ORx channel properties. […] These findings indicate VUAA-class OR co-modulators are viable compounds for further development as broad-spectrum insect control strategies, and VUAA4 can provide an advance in the pharmacological profile of VUAA-based compounds.
# [2] = Orco alone, read-out: Orco Agonist EC50
# [3] = Orco + 65, read-out: Orco + 65 Agonist EC50
# [4] = Orco alone, agonist, relative to VUAA1
structure (smiles),measurement,setting,value
"CCn1c(SCC(=O)Nc2ccc(C)cc2)nnc1-c1cccnc1 [VUAA0, 2-((4-ethyl-5-(pyridin-3-yl)-4H-1,2,4-triazol-3-yl)thio)-N-(p-tolyl)acetamide]",EC50,"AgOrco+AgOR65; heteromeric OR channels AgOrco+AgOR65, read-out: EC50",3400 µM
same,larval behavioral (movement) response,[1]; compared with DMSO controls or VUAA1,lower
CCn1c(SCC(=O)Nc2ccc(C(C)C)cc2)nnc1-c1cccnc1 [drawing 381],Emax,Orco (AgORco),102%
same,EC50,Orco (AgORco); [2],12.9 µM
same,"Orco 10 + Orco Agonist, compared with VUAA1",AgORco+AgOR10; agonist mode,>VUAA1
same,EC50,AgOrco+AgOR65; [3],9.6 µM
same,EC50,AgORco+AgOR48; Orco + 48,9.9 µM
same,Orco + 48 Agonist % value Of VUAA1,AgORco+AgOR48; Orco + 48,109%
CCn1c(SCC(=O)Nc2ccc(C(C)C)cc2)nnc1-c1cncs1,EC50,"AgORco+AgOR48; Orco + 48, agonist",16.8 µM
CCn1c(SCC(=O)Nc2ccc(Br)cc2F)nnc1-c1cccnc1,Orco Agonist value compared with VUAA1,"Orco (AgORco); Orco alone, qualitative, relative to VUAA1",<VUAA1
same,EC50,Orco (AgORco); [2],192 µM
same,"Orco 10 + Orco Agonist, compared with VUAA1",AgORco+AgOR10; agonist mode,<VUAA1
same,Orco 10 + Orco Angatonist % Reduction,AgORco+AgOR10; antagonist mode,0.00%
C=Cc1ccc(NC(=O)CSc2nnc(-c3cccnc3)n2CC)cc1 [drawing 376],Emax,Orco (AgORco),57%
same,EC50,Orco (AgORco); [2],102 µM
same,"Orco 10 + Orco Agonist, compared with VUAA1",AgORco+AgOR10; agonist mode,<VUAA1
same,EC50,AgORco+AgOR48; Orco + 48,37.4 µM
same,Orco + 48 Agonist % value Of VUAA1,AgORco+AgOR48; Orco + 48,77%
"CCN(CC)C(=O)c1cccc(C)c1 [DEET, N, N-diethyl-meta-toluamide, reference compound]",threshold concentration for increased larval movement,[1]; movements over 5-minute period,500 µM
CCc1ccc2c(c1)CCN2C(=O)CSc1nnc(-c2cccnc2)n1CC,Emax,Orco (AgORco),121%
same,EC50,Orco (AgORco); [2],35 µM
same,"Orco 10 + Orco Agonist, compared with VUAA1",AgORco+AgOR10; agonist mode,>VUAA1
same,EC50,AgORco+AgOR48; Orco + 48,12.8 µM
C=CCn1c(SCC(=O)Nc2ccc(C(C)C)cc2)nnc1-c1ccncc1,Orco + 48 Agonist % value Of VUAA1,"AgORco+AgOR48; Orco + 48, agonist",<VUAA1
same,Orco + 48 Agonist EC50 (relative to VUAA1),"AgORco+AgOR48; Orco + 48, agonist",<VUAA1
CCn1c(SCC(=O)Nc2ccc(C(C)C)cc2)nnc1-c1ccn(C)n1,Orco Agonist % value Of VUAA1,Orco (AgORco); [4],<VUAA1
same,Orco Agonist EC50 (relative to VUAA1),"Orco (AgORco); Orco alone, agonist",<VUAA1
O=C(CSc1nnc(-c2ccncc2)n1C1CC1)Nc1ccc(Br)cc1F,Orco + 48 Agonist % value Of VUAA1,"AgORco+AgOR48; Orco + 48, agonist",<VUAA1
same,Orco + 48 Agonist EC50 (relative to VUAA1),"AgORco+AgOR48; Orco + 48, agonist",<VUAA1
CCc1ccc(NC(=O)CSc2nnc(-c3cccnc3)n2CC)cc1 [drawing 373],Emax,Orco (AgORco),100%
same,Orco 10 + Orco Agonist % of control,AgORco+AgOR10; agonist mode,101.8%
same,EC50,AgOrco+AgOR65; [3],47 µM
same,Orco + 65 Agonist % value Of VUAA1,"AgOrco+AgOR65; Orco + 65, relative to VUAA1",100%
same,EC50,AgORco+AgOR48; Orco + 48,14 µM
same,Orco + 48 Agonist % value Of VUAA1,AgORco+AgOR48; Orco + 48,100%
CCn1c(SCC(=O)Nc2ccc(C(C)C)cc2)nnc1-c1cc[nH]c1,EC50,"AgORco+AgOR48; Orco + 48, agonist",13.7 µM
same,Orco + 48 Agonist % value Of VUAA1,"AgORco+AgOR48; Orco + 48, agonist",Poor
CC(C)c1ccc(NC(=O)CSc2nnc(-c3ccncc3)n2C2CC2)cc1 [drawing 634],EC50,"Orco (AgORco); Orco alone, agonist",3.5 µM
same,EC50,"AgOrco+AgOR65; Orco + 65, agonist, read-out: Orco + 65 Agonist EC50",3.1 µM
same,EC50,"AgORco+AgOR48; Orco + 48, agonist",1.9 µM
same,Orco + 48 Agonist % value Of VUAA1,"AgORco+AgOR48; Orco + 48, agonist",122%
CCn1c(SCC(=O)Nc2ccc(C(C)C)cc2)nnc1-c1cc[nH]n1,Orco Agonist % value Of VUAA1,Orco (AgORco); [4],<VUAA1
same,Orco Agonist EC50 (relative to VUAA1),"Orco (AgORco); Orco alone, agonist",<VUAA1
